pEC50, pKi: −log10 of the molar value.
target: T1, Peroxisome proliferator-activated receptor delta (Homo sapiens, UniProt Q03181); test: Antagonist activity at PPARdelta LBD (unknown origin) assessed as increase in fluorescein labeled SMRT-ID2 corepressor peptide requirement by TR-FRET assay; conditions: not given
T1 sequence (Q03181 whole entry): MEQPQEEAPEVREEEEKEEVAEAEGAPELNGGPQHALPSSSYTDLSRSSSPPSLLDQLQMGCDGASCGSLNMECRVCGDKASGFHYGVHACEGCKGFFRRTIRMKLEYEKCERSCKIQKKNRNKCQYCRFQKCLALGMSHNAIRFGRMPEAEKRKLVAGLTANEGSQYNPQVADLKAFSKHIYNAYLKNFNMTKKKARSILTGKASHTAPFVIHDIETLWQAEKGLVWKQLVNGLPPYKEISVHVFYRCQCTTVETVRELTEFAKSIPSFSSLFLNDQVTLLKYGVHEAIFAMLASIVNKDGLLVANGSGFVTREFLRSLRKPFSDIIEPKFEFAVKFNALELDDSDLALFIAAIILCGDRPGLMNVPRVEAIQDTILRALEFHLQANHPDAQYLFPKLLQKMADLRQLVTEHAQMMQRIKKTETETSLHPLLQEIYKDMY

pEC50 | SMILES
4.58 | O[C@@H]1[C@H](O)CO[C@H]1Cn1cnc2c(NCc3cccc(Br)c3)nc(Cl)nc21

target: T2, Peroxisome proliferator-activated receptor gamma (Homo sapiens, UniProt P37231); test: Binding affinity to PPARgamma (unknown origin) assessed as inhibition constant by TR-FRET based LanthaScreen competitive binding assay; conditions: not given
T2 sequence (P37231 whole entry): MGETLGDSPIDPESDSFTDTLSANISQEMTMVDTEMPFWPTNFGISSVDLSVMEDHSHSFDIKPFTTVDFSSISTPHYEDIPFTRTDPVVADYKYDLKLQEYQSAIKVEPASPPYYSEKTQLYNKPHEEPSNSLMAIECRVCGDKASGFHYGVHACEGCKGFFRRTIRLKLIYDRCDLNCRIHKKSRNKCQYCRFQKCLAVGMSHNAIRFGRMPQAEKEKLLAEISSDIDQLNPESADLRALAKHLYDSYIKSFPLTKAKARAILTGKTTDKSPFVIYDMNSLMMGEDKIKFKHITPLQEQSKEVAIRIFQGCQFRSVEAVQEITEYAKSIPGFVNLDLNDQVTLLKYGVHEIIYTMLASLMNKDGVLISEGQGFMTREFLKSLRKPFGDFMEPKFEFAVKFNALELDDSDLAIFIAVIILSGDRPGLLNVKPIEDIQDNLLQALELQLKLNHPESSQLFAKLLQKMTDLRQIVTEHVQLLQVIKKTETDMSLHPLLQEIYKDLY

pKi | SMILES
5.64 | O[C@@H]1[C@H](O)[C@@H]2C[C@@H]2[C@H]1Cn1cnc2c(NCc3ccccc3I)nc(Cl)nc21
5.44 | O[C@@H]1[C@H](O)CO[C@H]1Cn1cnc2c(NCc3cccc(Br)c3)nc(Cl)nc21

target: T3, Peroxisome proliferator-activated receptor delta (Homo sapiens) (UniProt Q03181); test: Binding affinity to PPARdelta (unknown origin) at 30 uM by TR-FRET based LanthaScreen competitive binding assay relative to control; conditions: not given
T3 sequence (whole entry): T1 sequence (Q03181 whole entry)

Activity [%] | SMILES
28.4 | O[C@@H]1[C@H](O)C=C[C@H]1Cn1cnc2c(NCc3cccc(F)c3)nc(Cl)nc21
7.3 | O[C@@H]1[C@H](O)C=C[C@H]1Cn1cnc2c(NCc3cccc(I)c3)ncnc21
5.9 | O[C@@H]1[C@H](O)C=C[C@H]1Cn1cnc2c(NCc3cccc(Cl)c3)ncnc21
2.4 | O[C@@H]1[C@H](O)C=C[C@H]1Cn1cnc2c(NCc3cccc(F)c3)ncnc21
37 | O[C@H]1[C@H](Cn2cnc3c(NCc4cccc(F)c4)nc(Cl)nc32)CC[C@H]1O
4.2 | O[C@@H]1[C@H](O)C=C[C@H]1Cn1cnc2c(NCc3cccc(Br)c3)ncnc21

Further lines, the molecule ahead of its results:

SMILES | Activity [%]
O[C@H]1[C@H](Cn2cnc3c(NCc4cccc(Cl)c4)ncnc32)CC[C@H]1O | 2
O[C@@H]1[C@H](O)[C@@H]2C[C@@H]2[C@H]1Cn1cnc2c(NCc3cccc(F)c3)ncnc21 | 0.8
O[C@@H]1[C@H](O)[C@@H]2C[C@@H]2[C@H]1Cn1cnc2c(NCc3cccc(Br)c3)ncnc21 | 20
O[C@H]1[C@H](Cn2cnc3c(NCc4cccc(Br)c4)ncnc32)CC[C@H]1O | 12.9
O[C@H]1[C@H](Cn2cnc3c(NCc4cccc(F)c4)ncnc32)CC[C@H]1O | 4.8
O[C@@H]1C[C@@H]2C[C@]2(Cn2cnc3c(NCc4cccc(F)c4)nc(Cl)nc32)[C@@H]1O | 11.9
O[C@@H]1C[C@@H]2C[C@]2(Cn2cnc3c(NCc4cccc(Cl)c4)ncnc32)[C@@H]1O | 2
O[C@@H]1[C@H](O)[C@@H]2C[C@@H]2[C@H]1Cn1cnc2c(NCc3ccccc3I)nc(Cl)nc21 | 34.6
O[C@@H]1[C@H](O)[C@@H]2C[C@@H]2[C@H]1Cn1cnc2c(NCc3cccc(Cl)c3)ncnc21 | 13.4
O[C@H]1[C@H](Cn2cnc3c(NCc4cccc(I)c4)ncnc32)CC[C@H]1O | 39.4
O[C@@H]1C[C@@H]2C[C@]2(Cn2cnc3c(NCc4cccc(Br)c4)ncnc32)[C@@H]1O | 9.2
O[C@@H]1C[C@@H]2C[C@]2(Cn2cnc3c(NCc4cccc(F)c4)ncnc32)[C@@H]1O | 7.4
O[C@@H]1C[C@@H]2C[C@]2(Cn2cnc3c(NCc4cccc(I)c4)ncnc32)[C@@H]1O | 8.6

same assay, conditions: filed as antagonist

Activity [%] | SMILES
46.3 | O[C@@H]1[C@H](O)[C@@H]2C[C@@H]2[C@H]1Cn1cnc2c(NCc3cccc(F)c3)nc(Cl)nc21
45.8 | O[C@@H]1[C@H](O)[C@@H]2C[C@@H]2[C@H]1Cn1cnc2c(NCc3cccc(I)c3)ncnc21

target: T4, Peroxisome proliferator-activated receptor alpha (Homo sapiens) (UniProt Q07869); test: Binding affinity to PPARalpha (unknown origin) at 30 uM by TR-FRET based LanthaScreen competitive binding assay relative to control; conditions: not given
T4 sequence (whole entry): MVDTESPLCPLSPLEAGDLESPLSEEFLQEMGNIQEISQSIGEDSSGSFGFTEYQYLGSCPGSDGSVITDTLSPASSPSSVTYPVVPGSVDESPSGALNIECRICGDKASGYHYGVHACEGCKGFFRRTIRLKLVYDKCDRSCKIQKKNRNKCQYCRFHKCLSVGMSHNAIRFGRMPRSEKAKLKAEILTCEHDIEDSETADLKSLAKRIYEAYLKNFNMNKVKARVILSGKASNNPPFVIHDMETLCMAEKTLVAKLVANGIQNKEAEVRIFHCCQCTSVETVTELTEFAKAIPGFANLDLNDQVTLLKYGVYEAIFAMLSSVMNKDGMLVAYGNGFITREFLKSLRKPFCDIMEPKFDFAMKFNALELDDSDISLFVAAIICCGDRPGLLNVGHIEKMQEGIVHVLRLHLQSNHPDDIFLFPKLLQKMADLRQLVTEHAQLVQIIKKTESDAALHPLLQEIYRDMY

Activity [%] | SMILES
4 | O[C@@H]1[C@H](O)C=C[C@H]1Cn1cnc2c(NCc3cccc(Cl)c3)nc(Cl)nc21
7 | O[C@@H]1[C@H](O)C=C[C@H]1Cn1cnc2c(NCc3cccc(F)c3)nc(Cl)nc21
4.1 | O[C@@H]1[C@H](O)C=C[C@H]1Cn1cnc2c(NCc3cccc(I)c3)ncnc21
0.8 | O[C@@H]1[C@H](O)C=C[C@H]1Cn1cnc2c(NCc3cccc(Cl)c3)ncnc21
5.2 | O[C@@H]1[C@H](O)C=C[C@H]1Cn1cnc2c(NCc3cccc(F)c3)ncnc21
3.8 | O[C@@H]1[C@H](O)[C@@H]2C[C@@H]2[C@H]1Cn1cnc2c(NCc3cccc(Cl)c3)nc(Cl)nc21
5.1 | O[C@H]1[C@H](Cn2cnc3c(NCc4cccc(Cl)c4)nc(Cl)nc32)CC[C@H]1O
6.5 | O[C@H]1[C@H](Cn2cnc3c(NCc4cccc(F)c4)nc(Cl)nc32)CC[C@H]1O
0.7 | O[C@@H]1[C@H](O)C=C[C@H]1Cn1cnc2c(NCc3cccc(Br)c3)ncnc21
0.3 | O[C@@H]1[C@H](O)CO[C@H]1Cn1cnc2c(NCc3cccc(Br)c3)nc(Cl)nc21

The next lines start with the molecule.

SMILES | Activity [%]
Cc1cc(SCc2sc(-c3ccc(C(F)(F)F)cc3)nc2C)ccc1OCC(=O)O | 34.9
O[C@H]1[C@H](Cn2cnc3c(NCc4cccc(Cl)c4)ncnc32)CC[C@H]1O | 4
O[C@@H]1[C@H](O)[C@@H]2C[C@@H]2[C@H]1Cn1cnc2c(NCc3cccc(F)c3)ncnc21 | 7.1
O[C@@H]1[C@H](O)[C@@H]2C[C@@H]2[C@H]1Cn1cnc2c(NCc3cccc(Br)c3)ncnc21 | 8.3
O[C@H]1[C@H](Cn2cnc3c(NCc4cccc(Br)c4)ncnc32)CC[C@H]1O | 6.6
O[C@H]1[C@H](Cn2cnc3c(NCc4cccc(F)c4)ncnc32)CC[C@H]1O | 63
O[C@@H]1C[C@@H]2C[C@]2(Cn2cnc3c(NCc4cccc(F)c4)nc(Cl)nc32)[C@@H]1O | 1.7
O[C@@H]1[C@H](O)[C@@H]2C[C@@H]2[C@H]1Cn1cnc2c(NCc3ccc(I)cc3)nc(Cl)nc21 | 2.7
COC(=O)c1sccc1S(=O)(=O)Nc1ccc(Nc2ccccc2)cc1OC | 6.4
O[C@@H]1[C@H](O)[C@@H]2C[C@@H]2[C@H]1Cn1cnc2c(NCc3cccc(F)c3)nc(Cl)nc21 | 3.6
O[C@@H]1C[C@@H]2C[C@]2(Cn2cnc3c(NCc4cccc(Cl)c4)ncnc32)[C@@H]1O | 6.9
O[C@@H]1[C@H](O)[C@@H]2C[C@@H]2[C@H]1Cn1cnc2c(NCc3cccc(I)c3)ncnc21 | 4.6
O[C@@H]1[C@H](O)[C@@H]2C[C@@H]2[C@H]1Cn1cnc2c(NCc3ccccc3I)nc(Cl)nc21 | 3.8
COc1cccc(CNc2nc(Cl)nc3c2ncn3C[C@H]2[C@H](O)[C@H](O)[C@@H]3C[C@H]23)c1 | 9.2
O[C@@H]1[C@H](O)[C@@H]2C[C@@H]2[C@H]1Cn1cnc2c(NCc3cccc(Cl)c3)ncnc21 | 6
O[C@H]1[C@H](Cn2cnc3c(NCc4cccc(I)c4)ncnc32)CC[C@H]1O | 5.3
O[C@@H]1C[C@@H]2C[C@]2(Cn2cnc3c(NCc4cccc(Br)c4)ncnc32)[C@@H]1O | 5.6
O[C@@H]1C[C@@H]2C[C@]2(Cn2cnc3c(NCc4cccc(F)c4)ncnc32)[C@@H]1O | 2.7
O[C@@H]1C[C@@H]2C[C@]2(Cn2cnc3c(NCc4cccc(I)c4)ncnc32)[C@@H]1O | 9.4

target: T1, Peroxisome proliferator-activated receptor delta; test: Binding affinity to PPARdelta (unknown origin) assessed as inhibition constant by TR-FRET based LanthaScreen competitive binding assay; conditions: not given

pKi | SMILES
5.60 | O[C@@H]1[C@H](O)C=C[C@H]1Cn1cnc2c(NCc3cccc(Cl)c3)nc(Cl)nc21
6.01 | O[C@@H]1[C@H](O)[C@@H]2C[C@@H]2[C@H]1Cn1cnc2c(NCc3cccc(Cl)c3)nc(Cl)nc21
5.79 | O[C@H]1[C@H](Cn2cnc3c(NCc4cccc(Cl)c4)nc(Cl)nc32)CC[C@H]1O
6.43 | O[C@@H]1[C@H](O)CO[C@H]1Cn1cnc2c(NCc3cccc(Br)c3)nc(Cl)nc21

Continued, molecule first:

SMILES | pKi
O[C@@H]1[C@H](O)[C@@H]2C[C@@H]2[C@H]1Cn1cnc2c(NCc3ccc(I)cc3)nc(Cl)nc21 | 5.94
COc1cccc(CNc2nc(Cl)nc3c2ncn3C[C@H]2[C@H](O)[C@H](O)[C@@H]3C[C@H]23)c1 | 6.53

Reference: ChEMBL document CHEMBL5380837, “Structure-Activity Relationships of Truncated 1'-Homologated Carbaadenosine Derivatives as New PPARγ/δ Ligands: A Study on Sugar Puckering Affecting Binding to PPARs” (J Med Chem, 2023)
